Measured values as given in patent US10752595B2, “Crystalline forms of a bromodomain and extraterminal protein inhibitor drug, processes for preparation thereof, and use thereof” (Crystal Pharmaceutical (Suzhou) Co., Ltd., priority 2016, dated 2020).
≈ marks a conversion by molar mass, not a printed value. Entries after “also recorded” stand apart in the source; their conditions may differ.

Key:
[1] = Solubility study: saturated solutions in SGF and FeSSIF, concentration by HPLC; format: physicochemical; conditions: for Solubility FeSSIF: FeSSIF (fed state simulated intestinal fluids, pH=5.0); for Solubility SGF: SGF (simulated gastric fluids)
Description: High Performance Liquid Chromatography (HPLC) data in the present disclosure were collected from an Agilent 1260 with Diode Array Detector (DAD). The HPLC method parameters for purity test in the present disclosure are as follows: • 1. Column: Waters XBridge C18 150×4.6 mm, 5 μm • 2. Mobile Phase: A: 0.1% TFA in H2O • B: 0.1% TFA in Acetonitrile
The prepared apabetalone Form CS2 was suspended into SGF (simulated gastric fluids) and FeSSIF (fed state simulated intestinal fluids, pH=5.0) to obtain saturated solutions. After being equilibrated for 1 h and 24 h, concentrations of the saturated solutions were measured by HPLC.
The prepared Form CS8 was suspended into SGF (simulated gastric fluids) and FeSSIF (fed state simulated intestinal fluids, pH=5.0) to obtain saturated solutions. After being equilibrated for 1 h, concentrations of the saturated solutions were measured by HPLC.
The prepared Form CS13 was suspended into SGF (simulated gastric fluids) and FeSSIF (fed state simulated intestinal fluids, pH=5.0) to obtain saturated solutions. After being equilibrated for 1 h, 4 h and 24 h, concentrations of the saturated solutions were measured by HPLC.
The prepared apabetalone Form CS20 was suspended into SGF (simulated gastric fluids) and FeSSIF (fed state simulated intestinal fluids, pH=5.0) to obtain saturated solutions. After being equilibrated for 1 h, 4 h and 24 h, concentrations of the saturated solutions were measured by HPLC.
The prepared solid of apabetalone Form CS1 was suspended into SGF (simulated gastric fluids) and FeSSIF (fed state simulated intestinal fluids, pH=5.0) to obtain saturated solutions. After being equilibrated for 1 h, 4 h and 24 h, concentrations of the saturated solutions were measured by HPLC.
The prepared solid of apabetalone Form CS7 was suspended into SGF (simulated gastric fluids) and FeSSIF (fed state simulated intestinal fluids, pH=5.0) to obtain saturated solutions. After being equilibrated for 1 h, 4 h and 24 h, concentrations of the saturated solutions were measured by HPLC.
The prepared solid of apabetalone Form CS9 was suspended into SGF (simulated gastric fluids) and FeSSIF (fed state simulated intestinal fluids, pH=5.0) to obtain saturated solutions. After being equilibrated for 1 h, 4 h and 24 h, concentrations of the saturated solutions were measured by HPLC.
The prepared solid of apabetalone Form CS11 was suspended into SGF (simulated gastric fluids) and FeSSIF (fed state simulated intestinal fluids, pH=5.0) to obtain saturated solutions. After being equilibrated for 1 h, 4 h and 24 h, concentrations of the saturated solutions were measured by HPLC.
The prepared solid of apabetalone Form CS4 was suspended into SGF (simulated gastric fluids) and FeSSIF (fed state simulated intestinal fluids, pH=5.0) to obtain saturated solutions. After being equilibrated for 1 h, 4 h and 24 h, concentrations of the saturated solutions were measured by HPLC.

[2] = Stability study: open-dish storage in constant temperature and humidity chambers, XRPD and purity check; format: physicochemical; conditions: for Form change and purity decrease after storage / Purity after storage: open dish
Experimental: Form CS8 was placed in a constant temperature and humidity chamber at 25° C./60% RH for 2 weeks in open dish. Crystalline form of the sample were tested by XRPD and impurity of the sample were checked. […] Crystalline form of the sample were tested by XRPD and impurity of the sample were checked. […] Two samples of apabetalone Form CS1 were placed in constant temperature and humidity chambers at 25° C./60% RH and 40° C./75% RH for 10 months in open dishes. The samples were characterized by XRPD and chemical impurity. […] Three samples of apabetalone Form CS7 were placed in constant temperature and humidity chambers at 25° C./60% RH and 40° C./75% RH for 4 weeks and 80° C. for 1 day in open dishes. Crystalline form of the sample were tested by XRPD and impurity of the sample were checked. […] Two samples of apabetalone Form CS9 were placed in constant temperature and humidity chambers at 25° C./60% RH and 40° C./75% RH for 10 months in open dishes. Crystalline form of the sample were tested by XRPD and impurity of the sample were tested to check the stability of Form CS9. […] Two samples of apabetalone Form CS11 were placed in constant temperature and humidity chambers at 25° C./60% RH and 40° C./75% RH for 6 weeks in open dishes. Crystalline form of the sample were tested by XRPD and impurity of the sample were tested to check the stability of Form CS11. […] Two samples of apabetalone Form CS4 were placed in open dishes in constant temperature and humidity chambers at 25° C./60% RH and 40° C./75% RH for 10 months. Crystalline form of the sample were tested by XRPD and impurity of the sample were tested to check the stability of Form CS4.

[3] = Hygroscopicity by dynamic vapor sorption (DVS); format: physicochemical; conditions: for Hygroscopicity class: Chinese Pharmacopoeia 2015 criteria, 80% RH; for Hygroscopicity class / Weight Gain under 80% Relative Humidity: 25° C.; for Weight Gain under 80% Relative Humidity: DVS, about 10 mg of sample; for Form change after DVS test (XRPD): XRPD before and after DVS test
Experimental: Dynamic Vapor Sorption (DVS) was measured via a SMS (Surface Measurement Systems Ltd.) intrinsic DVS instrument. Its control software is DVS—Intrinsic control software, and its analysis software is DVS—Intrinsic Analysis software. Typical Parameters for DVS test are as follows: • Temperature: 25° C. • Gas and flow rate: N2, 200 mL/min • dm/dt: 0.002%/min • RH range: 0% RH to 95% RH Dynamic vapor sorption (DVS) was applied to test hygroscopicity of Form CS8 in the present disclosure with about 10 mg of sample. […] Dynamic vapor sorption (DVS) was applied to test hygroscopicity of Form CS1 of the present disclosure with about 10 mg of sample. […] Dynamic vapor sorption (DVS) was applied to test hygroscopicity of Form CS7 of the present disclosure with about 10 mg of samples. Dynamic vapor sorption (DVS) was applied to test hygroscopicity of Form CS9 of the present disclosure with about 10 mg of sample. […] Dynamic vapor sorption (DVS) was applied to test hygroscopicity of Form CS4 of the present disclosure with about 10 mg of sample.

[4] = Mechanical stability: manual grinding for 5 minutes, XRPD; format: physicochemical; conditions: ground manually in a mortar for 5 minutes
Experimental: Certain amount of Form CS1 was placed in a mortar and ground manually for 5 minutes. XRPD of the solid obtained was tested. Certain amount of Form CS4 was placed in a mortar and ground manually for 5 minutes. Crystalline form of the sample was checked by XRPD.

[5] = Dissolution test of Form CS1 capsule; format: physicochemical; conditions: capsule with 50 mg API; HCl (0.1 mol/L), paddle, 900 mL, 75 rpm, 37° C.; at 20 minutes
Experimental: Certain amount of the API, microcrystalline cellulose, croscarmellose sodium according to Table 5.8 and 2 mg of magnesium stearate were weighted and blended for 2 minutes. Flakes were prepared using a manual tablet press at 5 KN pressure with a φ20 mm round tooling. The crushed flakes were manually sieved through 20 mesh sieve. 2 mg of magnesium stearate was added, and then the obtained powder was blended for 1 minute. The mixture was encapsulated into a 1# capsule shell, then the capsule was packed in 35 cc HDPE (high density polyethylene) bottle (one capsule per bottle) containing 1 g of desiccant. The bottle was then sealed by sealing machine. […] Dissolution test was performed on the obtained capsule. The conditions are as follows: Medium: HCl (0.1 mol/L) Method: Paddle Volume: 900 mL Speed: 75 rpm Temperature: 37° C.

[6] = Formulation study: form stability in the capsule preparation; format: physicochemical; conditions: capsule with microcrystalline cellulose, croscarmellose sodium, magnesium stearate
Experimental: Certain amount of the API, microcrystalline cellulose, croscarmellose sodium according to Table 5.8 and 2 mg of magnesium stearate were weighted and blended for 2 minutes. Flakes were prepared using a manual tablet press at 5 KN pressure with a φ20 mm round tooling. The crushed flakes were manually sieved through 20 mesh sieve. 2 mg of magnesium stearate was added, and then the obtained powder was blended for 1 minute. The mixture was encapsulated into a 1# capsule shell, then the capsule was packed in 35 cc HDPE (high density polyethylene) bottle (one capsule per bottle) containing 1 g of desiccant. The bottle was then sealed by sealing machine.

[7] = biological target: BRD4 of BET family (Homo sapiens, UniProt O60885); conditions: background statement, regulates ApoA-1 expression; cited from earlier work

| Solubility FeSSIF ([1]; equilibrated 1 h) [mg/mL] | Solubility FeSSIF ([1]; equilibrated 4 h) [mg/mL] | Solubility FeSSIF ([1]; equilibrated 24 h) [mg/mL] | Solubility SGF ([1]; equilibrated 1 h) [mg/mL] | Solubility SGF ([1]; equilibrated 4 h) [mg/mL] | Solubility SGF ([1]; equilibrated 24 h) [mg/mL] | Time the form is stable when stored ([2]; 25° C./60% RH) | Purity after storage ([2]; 25° C./60% RH, 1 week) | Purity after storage ([2]; 25° C./60% RH, 2 weeks) | Purity after storage ([2]; 25° C./60% RH, 10 months) | Time the form is stable when stored ([2]; 40° C./75% RH) | Purity after storage ([2]; 40° C./75% RH, 1 week) | Purity after storage ([2]; 40° C./75% RH, 2 weeks) | Purity after storage ([2]; 40° C./75% RH, 10 months) | Hygroscopicity class [3] | Weight Gain under 80% Relative Humidity [3] [%] | SMILES | Form change and purity decrease after storage ([2]; 25° C./60% RH, 10 months) | Form change and purity decrease after storage ([2]; 40° C./75% RH, 10 months) | Form change after DVS test (XRPD) [3] | Form change and crystallinity decrease after manual grinding (XRPD) [4] | other results |
| --- | --- | --- | --- | --- | --- | --- | --- | --- | --- | --- | --- | --- | --- | --- | --- | --- | --- | --- | --- | --- | --- |
| 0.14 (≈ 378 µM) | 0.11 (≈ 297 µM) | 0.14 (≈ 378 µM) | 0.31 (≈ 837 µM) | 0.29 (≈ 783 µM) | 0.33 (≈ 891 µM) | at least 10 months | 99.27 | 99.23 | 99.24 | at least 10 months | 99.20 | 99.20 | 99.21 | almost non hygroscopic | 0.13 | COc1cc(OC)c2c(=O)[nH]c(-c3cc(C)c(OCCO)c(C)c3)nc2c1 [Form CS1, 2-[4-(2-hydroxyethoxy)-3,5-dimethylphenyl]-5,7-dimethoxyquinazolin-4(3H)-one] | No form change and obvious purity decrease | No form change and obvious purity decrease | No form change; also recorded: doesn't change | no form change and obvious crystallity decrease; also recorded: doesn't change after manual grinding | Purity after storage ([2]; 25° C./60% RH, 5 weeks): 99.25; Purity after storage ([2]; 40° C./75% RH, 5 weeks): 99.25; Released amount in dissolution test [5]: more than 90%; Stability of the form in the preparations [6]: stable in the preparations |
| 0.14 (≈ 378 µM) | 0.10 (≈ 270 µM) | 0.16 (≈ 432 µM) | 0.30 (≈ 810 µM) | 0.28 (≈ 756 µM) | 0.38 (≈ 1030 µM) | at least 10 months | 99.10 | 99.06 | 99.04 | at least 10 months | 99.10 | 98.99 | 99.02 | almost non hygroscopic | 0.12 | COc1cc(OC)c2c(=O)[nH]c(-c3cc(C)c(OCCO)c(C)c3)nc2c1 [Form CS4, 2-[4-(2-hydroxyethoxy)-3,5-dimethylphenyl]-5,7-dimethoxyquinazolin-4(3H)-one] | No form change and obvious purity decrease | No form change and obvious purity decrease | doesn't change; also recorded: No form change | doesn't change after manual grinding; also recorded: no form change and obvious crystalline decrease | Purity after storage ([2]; 25° C./60% RH, 4 weeks): 99.05; Purity after storage ([2]; 40° C./75% RH, 4 weeks): 99.04 |
|  |  |  |  |  |  |  |  |  |  |  |  |  |  |  |  | COc1cc(OC)c2c(=O)[nH]c(-c3cc(C)c(OCCO)c(C)c3)nc2c1 [apabetalone, 2-[4-(2-hydroxyethoxy)-3,5-dimethylphenyl]-5,7-dimethoxyquinazolin-4(3H)-one] |  |  |  |  | Inhibition of BRD4 [7]: can inhibit BRD4 |
